Data published in patent publication US6433022B1, “Spermicide” (Medical Research Council, priority 1997, dated 2002).

Experiments:
[1] = test system: spermatozoa; experiment: Effect on lipid peroxidation in spermatozoa; format: cell-based, human; details: exposure to compound vs control
[2] = test system: sperm, seminal plasma and serum; experiment: Luminol/peroxidase-dependent chemiluminescence detection of quinone-induced H2O2; format: cell-based, human; details: 50 μM
Source text: (§1) ROS generation was monitored by luminometry employing the chemiluminescence probes lucigenin and luminol. Lucigenin is sensitive to the presence of superoxide anion and was used to monitor the free radical responses to NAD(P)H. Luminol, when used in conjunction with horseradish peroxidase (HRP; Sigma Type Vl, 288 U/mg), detects mainly hydrogen peroxide (Aitken et al., 1992) and was used to monitor the responses of spermatozoa to PMA (phorbol 12-myristate, 13-acetate), an activator of protein kinase C. NAD(P)H could not be used with the luminol-peroxidase system because of the generation of high background signals, presumably due to the oxidase reactions of HRP. Photon emission was monitored at 37° C. using the Bermold 9505B luminometer (Berthold, Wilbad, Germany) featuring 6 electronically compensated, peltier cooled, photomultipliers and the results expressed as counts/minute. For both of the probes used, 400 μl of spermatozoa, at a concentration of 10×10^6/ml, were placed in a 3 ml plastic, flat-bottomed plastic tube. For luminol-based reactions, the spermatozoa were suspended in BWW supplemented with Albuminar, but when lucigenin was used the Albuminar was replaced with 1 mg/ml polyvinyl alcohol. A 4 μl aliquot of a 25 mM stock solution of either luminol or lucigenin m-dimethyl sulphoxide (DMSO), was then added to the cell suspension, resulting in a final probe concentration of 250 μM. For the measurement of hydrogen peroxide generation by intact cells, luminol-dependent chemiluminescence was enhanced by addition of 8 μl of HRP, freshly prepared at a concentration of 2 mg/ml in PBS, to give a final HRP concentration of 11.52 U/ml. The luminometer results were recorded as continuous traces and as integrated photon counts over a fixed period of time (5 min).
Luminol alone measures H2O2; however when used alongside HRP, it can measure the production of H2O2 internally and externally. The sperm were prepared by standard percoll gradient and resuspended in seminal plasma or BWW/PVA to a concentration of 10 million cells per ml. […]

[3] = test system: HIV-1; experiment: Virucidal activity using cell-free virus (viral adhesion assay, syncytia in C8166 cells); format: cell-based
Procedure: A simple, microtitre plate assay was developed (viral adhesion assay) in which the virus was attached to the solid phase by Pol-L-lysine Hydrobromide (PLL, Sigma). Sterile 24 and 96 well plates (Nunc) were coated for 1 hour with 50 μl of 50 μg/ml PLL at room temperature. When using 96 well microtitre plates the outer ring of wells were left uncoated and filled with 250 μl of sterile PBS to counteract the effects of evaporation. The coated wells were washed twice with sterile PBS using a Denley-4 plate washer. 25 μl of RPMI 1640 medium containing HIV-1 (50×TCID50) was added to the wells and incubated for 1 hour at room temperature. The plate was again washed twice with sterile PBS. 25 μl of varying concentrations of the candidate virucide were added to each well for 15 minutes and the virucide removed with two washes of sterile PBS. The T-lymphocyte cell line C8166, at a concentration of 4×10^4 cells in 300Fl RPMI 1640, were added to each well so that the cells formed a uniform monolayer on the adherent virus. After incubation for 72 hours, the number of syncytia in the monolayer gave an accurate measure of the amount of infectious virus present. Wells untreated with virucide were used as positive controls. […] The assay allowed the efficient removal of the candidate virucides or disinfectant and allowed the compound to be assessed for accurately determined contact times.

[4] = test system: human sperm; experiment: Effect of quinones on sperm motility; format: cell-based
Procedure: Following the preparation of spermatozoa by standard Percoll gradient they were resuspended in homologous seminal plasma to a concentration of 20 million per ml, immediately prior to the beginning of the experiment. 50 μl of the sperm suspension was placed in an eppendorf tube, and the quinone was either added alone or in combination with other reagents, for example, KI, HRP (Horseradish Peroxidase), BHT (butylated hydroxytoluene) etc. depending on the experiment. The volume was made up to 100 μl with BWW/PVA.
The quinone was always the final reagent to be added. […] The sample was gently agitated and 10 μl was placed on a slide and a motility was scored. The aim was to score a motility approximately 20 seconds following the addition of the quinone. There were two controls set up, one motility count taken at the beginning of the experiment (initial control) and one motility count taken at the end of the experiment (final control). The controls consisted of 50 μl of the sperm suspension followed by the addition of 50 μl BWW/PVA. The reason for having two controls was to observe if any changes in sperm motility had occurred simply as a factor of time, i.e. from residing in seminal plasma for a long duration. At all times during the experiment, the spermatozoa were incubated in a hot box at 24° C. All motility experiments were carried out on sperm suspended in seminal plasma unless otherwise stated.

[5] = test system: spermatozoa in seminal plasma; experiment: Lucigenin-dependent chemiluminescence detection of quinone-induced superoxide; format: cell-based, human; details: increasing doses incl. 25 μM and 50 μM; FIG. 1b
Source text: as §1, with “A 4 μl aliquot of a 25 mM stock solution of either luminol or lucigenin m-dimethyl sulphoxide (DMSO), was then added to the cell suspension, resulting in a final probe concentration of 250 μM. For the measurement of hydrogen peroxide generation by intact cells, luminol-dependent chemiluminescence was enhanced by addition of 8 μl of HRP, freshly prepared at a concentration of 2 mg/ml in PBS, to give a final HRP concentration of 11.52 U/ml.” left out, “min). […]” for “min).”

[6] = test system: human spermatozoa; experiment: Percentage motility of spermatozoa exposed to NADPH; format: cell-based; details: doses 0.625 to 10 mM, at least 3 hr
[7] = test system: human spermatozoa; experiment: Nicotinamide dinucleotide-induced superoxide generation, lucigenin-dependent chemiluminescence; format: cell-based
Source text: as §1
The ability of human spermatozoa to generate superoxide anion in response to NADPH was monitored by lucigenin-dependent chemiluminescence and compared with its non-phosphorylated and non-reduced counterparts, i.e. NADH, NADP^+ and NAD^+. In addition, the stimulatory properties of an isomer of NADPH, usually non-active in reductive biosynthesis, were examined. All pyridine nucleotides were made up to the required concentration in PBS immediately prior to use. Stock solutions of the nucleotides were made up at concentrations 10 fold higher than the required final working concentration, to allow for a 10 fold dilution on addition to the suspensions of spermatozoa.

[8] = test system: human spermatozoa; experiment: Quantification of superoxide anion generation by SOD-inhibitable reduction of cytochrome C; format: cell-based; details: 2 mM, n=5
Procedure: Superoxide anion generation was quantified spectrophotometrically via the superoxide-dependent reduction of cytochrome C (McCord and Fridovich, 1969). Spermatozoa were used at an increased concentration of 10×10^7/ml in BWW supplemented with PVA (1 mg/ml). An aliquot (400 μl) of this sperm suspension was placed in a 1 ml disposable, plastic cuvette and 50 μl of cytochrome C (Type Vl from horse heart), was added to give a final working concentration of 100 μM. The reference cuvette contained the same ingredients, except that 50 μl of SOD was added to give final concentration of 196 U/ml. Absorbance was monitored at 550 nm and the SOD-inhibitable superoxide generation calculated using an extinction coefficient for reduced cytochrome C of ε=21.1 mM^−1cm^−1.

Structure (SMILES) | lipid peroxidation in spermatozoa [1] | H2O2 production in seminal plasma and serum ([2]; no spermatozoa) | H2O2 production, spermatozoa in BWW ([2]; on addition of the reagent) | time of peak of slow secondary increase in H2O2 after initial exposure ([2]; spermatozoa in BWW) | antiviral activity against HIV-1 ([3]; absence of human semen, 15 minutes contact) | antiviral activity against HIV-1, effect of semen ([3]; presence of human semen vs absence) | mean motility score ([4]; 50 μM quinone, human sperm) | sperm immobilisation ([4]; concentrations ranging from 25 μM to 100 μM) | IC50 ([4]; human sperm in seminal plasma, motility scored approximately 20 seconds after addition, read-out: ID50, dose-dependent inhibition of sperm motility) | superoxide burst generated by spermatozoa in seminal plasma [5] | percentage motility of the spermatozoa [6] | lucigenin-dependent chemiluminescent response (superoxide anion generation) ([7]; 500 μM nucleotide) | increase in the chemiluminescent signal ([7]; addition to spermatozoa, lucigenin, FIG. 5a) | superoxide generation rate during sudden burst [8] | superoxide release rate after stabilisation ([8]; thereafter)
O=C1C=CC(=O)c2ccccc21 [1,4-naphthoquinone] | lipid peroxidation did not occur | no such activity | instantaneous significant burst of H2O2 | 25 to 30 min | dose-dependent antiviral activity | potentiated by an order of magnitude | 0.143% | completely immobilised | ~10 µM | Increasing doses of this compound led to a corresponding increase in superoxide production |  |  |  |  | 
NC(=O)C1=CN([C@@H]2O[C@H](COP(=O)(O)OP(=O)(O)OC[C@H]3O[C@@H](n4cnc5c(N)ncnc54)[C@H](OP(=O)(O)O)[C@@H]3O)[C@@H](O)[C@H]2O)C=CC1 [NADPH, Dihydronicotinamide adenine dinucleotide phosphate] |  |  |  |  |  |  |  |  |  |  | remained unchanged | burst of ROS generation | 10 fold | 99.52+/−9.12 pmol.min^−1. 10^6 spermatozoa | 7.65+/−0.97 pmol.min^−1. 10^6 spermatozoa
